Paper doi:10.1101/2025.05.21.654962v1 (biorxiv, 2025)
Each block holds one compound with its values, some of them ahead of it.

Key:
[1] = biological target: T1, NgUPPS (undecaprenyl diphosphate synthase) (Neisseria gonorrhoeae, UniProt Q5F5X2); test: pyrophosphatase-coupled phosphate release, Biomol Green; format: biochemical
T1 sequence (Q5F5X2 1-248): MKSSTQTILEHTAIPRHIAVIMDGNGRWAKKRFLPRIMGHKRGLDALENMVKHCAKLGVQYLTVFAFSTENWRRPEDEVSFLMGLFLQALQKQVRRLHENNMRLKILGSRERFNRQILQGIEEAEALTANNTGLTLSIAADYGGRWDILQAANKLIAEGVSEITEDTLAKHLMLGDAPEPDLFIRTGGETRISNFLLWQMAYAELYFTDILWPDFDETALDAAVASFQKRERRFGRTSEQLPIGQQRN

[2] = biological target: T1, NgUPPS (undecaprenyl diphosphate synthase); test: crystal structure; format: binding

IC50 [1]: 3.4 µM
Structure (SMILES): O=C(Nc1cccc(Oc2ccc(C(=O)O)c(C(=O)O)c2)c1)c1ccc(-c2ccccc2)cc1 [compound 10, 4-{3-[(biphenyl-4-ylcarbonyl)amino]phenoxy}benzene-1,2-dicarboxylic acid]

crystal structure (soaking); WAC-MS hit ([2]; region 4): 9OJA (FC-0609)
Structure (SMILES): O=C(O)c1ccc(C(F)(F)F)cn1 [FC-0609]

crystal structure (soaking); WAC-MS hit ([2]; region 4 (distal end of tunnel)): 9OJ1 (DA-0854)
Structure (SMILES): Nc1cc(-c2ccc(C(F)(F)F)cc2)no1 [DA-0854]

crystal structure (soaking); WAC-MS hit ([2]; region 1, two sites): 9OHI (PS-5549)
Structure (SMILES): Cc1nonc1CO [PS-5549]

crystal structure (soaking); WAC-MS hit ([2]; region 2): 9OI6 (FD-0739)
Structure (SMILES): O=C(O)c1cc(C(F)(F)F)ccn1 [FD-0739]

crystal structure (soaking); WAC-MS hit ([2]; region 1): 9OHO (PS-3756)
Structure (SMILES): NCc1cccc(O)c1 [PS-3756]

Structure (SMILES): Clc1ccc2nc(N3CCNCC3)sc2c1 [PS-0394]
crystal structure (soaking); WAC-MS hit ([2]; region 3, code printed PS-0394 with the PDB id but PS-3094): 9OJB (PS-0394)

crystal structure (soaking); WAC-MS hit ([2]; region 3): 9OHP (BA-0843)
Structure (SMILES): Cc1ccc(O)c(-c2cc[nH]n2)c1 [BA-0843]

crystal structure (soaking); WAC-MS hit ([2]; region 2): 9OJE (5Br-P)
Structure (SMILES): O=C(O)c1ccc(Br)cn1 [5Br-P]

crystal structure (soaking); WAC-MS hit ([2]; region 1, two sites): 9OHG (PS-5570)
Structure (SMILES): OCc1cccs1 [PS-5570]

crystal structure (soaking); WAC-MS hit ([2]; region 3 (hydrophobic core)): 9OIV (4W-0801)
Structure (SMILES): Brc1ccsc1-c1ccn[nH]1 [4W-0801]

crystal structure (soaking); WAC-MS hit ([2]; region 1, two sites): 9OIW (GF-0701)
Structure (SMILES): O=C(O)c1ncccc1F [GF-0701]

crystal structure (soaking); WAC-MS hit ([2]; region 1, two sites): 9OHJ (4R-0623)
Structure (SMILES): O=C(O)c1cn2cc(Cl)ccc2n1 [4R-0623]

crystal structure (soaking); WAC-MS hit ([2]; region 1): 9OHB (PS-5485)
Structure (SMILES): OCc1ccccc1Cl [PS-5485]

crystal structure (soaking); WAC-MS hit ([2]; region 2): 9OIY (DA-0841)
Structure (SMILES): Nc1cc(-c2cccc(C(F)(F)F)c2)no1 [DA-0841]

crystal structure (soaking); WAC-MS hit ([2]; region 3): 9OI5 (PS-4845)
Structure (SMILES): Brc1ccc(-c2cc[nH]n2)s1 [PS-4845]
